The source of these data is PMC6270455, “Antibacterial and Herbicidal Activity of Ring-Substituted 3-Hydroxynaphthalene-2-carboxanilides” (Molecules, 2013).

In series [1] the test system is Mycobacterium marinum CAMP 5644. Kind of series: In vitro antimycobacterial evaluation, broth dilution micro-method. The series is classed as cell-based. Conditions: CAMP5644, 504 h, Middlebrook 7H9, 21 days, 28 °C. In general terms: In broth dilution the organism is exposed to a series of concentrations in liquid medium.
Another series has as its system M. kansasii DSM 44162. Described as above. The series is classed as cell-based. As to conditions: Mycobacterium kansasii, DSM44162, 168 h, Middlebrook 7H9, 7 days, 37 °C.
Series [2] has as its system methicillin-resistant Staphylococcus aureus (MRSA) 63718. Kind of series: In vitro antibacterial susceptibility testing, broth dilution micro-method. The series is classed as cell-based. As to conditions: Staphylococcus aureus; clinical isolate MRSA 63718; MH broth, 24 h, 37 °C. On the procedure:
(§1) The synthesized compounds were evaluated for in vitro antibacterial activity against representatives of multidrug-resistant bacteria, clinical isolates of methicillin-resistant Staphylococcus aureus (MRSA) 63718, SA 630 and SA 3202 that were obtained from the National Institute of Public Health, Prague, Czech Republic. Staphylococcus aureus ATCC 29213 was used as a reference and quality control strain. Ampicillin (Sigma-Aldrich) was used as the standard. Prior to testing, each strain was passaged onto nutrient agar (Oxoid, Hampshire, UK) with 5% of bovine blood, and bacterial inocula were prepared by suspending a small portion of bacterial colony in sterile phosphate buffered saline (pH 7.2–7.3). The cell density was adjusted to 0.5 McFarland units using a densitometer (Densi-La-Meter, LIAP, Riga, Latvia). The final inoculum was made by 1:20 dilution of the suspension with the Mueller-Hinton broth (MH broth). […] The broth dilution micro-method modified according to NCCLS guidelines in MH broth was used to determine the minimum inhibitory concentration (MIC). Drug-free controls, sterility controls and controls consisted of MH broth and DMSO alone were included. The determination of results was performed visually after 24 h of static incubation in the darkness at 37 °C in an aerobic atmosphere. The MICs were defined as the lowest concentration of the compound at which no visible bacterial growth was observed.

Series [3] concerns Staphylococcus aureus ATCC 29213. The series is described as above. The series is classed as cell-based. As to conditions: ATCC29213, MH broth, 24 h, 37 °C. As to the method: as §1
Series [4] has as its system methicillin-resistant S. aureus SA 630. Described as above. It is filed as cell-based, Staphylococcus aureus. Conditions: Staphylococcus aureus; clinical isolate MRSA SA 630; MH broth, 24 h, 37 °C. As to the method:
as §1

For series [5], the system named is methicillin-resistant S. aureus SA 3202. Described as above. The series is classed as cell-based, Staphylococcus aureus. Conditions: Staphylococcus aureus; clinical isolate MRSA SA 3202; MH broth, 24 h, 37 °C. As to the method: as §1
Series [6] can be described thus: Lipophilicity determination by RP-HPLC (capacity factor, log k). It is filed as physicochemical. As to conditions: RP-HPLC capacity factor logarithm; C18 column, MeOH 60% / H2O 40%, 40 °C. As to the method:
Lipophilicity of the studied compounds was determined by RP-HPLC as capacity factor logarithm (log k) and calculated as log P using ACD/Percepta software. […] It is important to note that lipophilicity also has a great impact on target and off-target interactions, as mentioned below.
A HPLC system Agilent 1200 equipped with DAD detector (Agilent, Santa Clara, CA, USA) was used. A chromatographic column Symmetry® C18 5 μm, 4.6 × 250 mm, Part No. WAT054275, (Waters Corp., Milford, MA, USA) was used. The HPLC separation process was monitored and evaluated by EZChrom Elite software ver. 3.3.2 (Agilent). Isocratic elution by a mixture of MeOH p.a. (60%) and H2O-HPLC Mili-Q grade (40%) as a mobile phase was used. The total flow of the column was 1.0 mL/min, injection 20 μL, column temperature 40 °C and sample temperature 10 °C. The detection wavelength 210 nm was chosen. The KI methanolic solution was used for the dead time (tD) determination. Retention times (tR) were measured in minutes. The capacity factors k were calculated according to formula k = (tR − tD)/tD, where tR is the retention time of the solute, whereas tD denotes the dead time obtained using an unretained analyte. Log k, calculated from the capacity factor k, is used as the lipophilicity index converted to log P scale.

Series [7] concerns photosynthetic electron transport (PET) in spinach chloroplasts. Briefly: Inhibition of photosynthetic electron transport (PET) in spinach chloroplasts (DCPIP photoreduction). As to conditions: phosphate buffer pH 7.2, DCPIP acceptor. It is filed as biochemical, Spinacia oleracea L. As to the method:
Chloroplasts were prepared from spinach (Spinacia oleracea L.) according to Masarovicova and Kralova. The inhibition of photosynthetic electron transport (PET) in spinach chloroplasts was determined spectrophotometrically (Genesys 6, Thermo Scientific), using an artificial electron acceptor 2,6-dichlorophenol-indophenol (DCIPP) according to Kralova et al., and the rate of photosynthetic electron transport was monitored as a photoreduction of DCPIP. The measurements were carried out in phosphate buffer (0.02 mol/L, pH 7.2) containing sucrose (0.4 mol/L), MgCl2 (0.005 mol/L) and NaCl (0.015 mol/L). The chlorophyll content was 30 mg/L in these experiments and the samples were irradiated (~100 W/m^2 with 10 cm distance) with a halogen lamp (250 W) using a 4 cm water filter to prevent warming of the samples (suspension temperature 22 °C). The studied compounds were dissolved in DMSO due to their limited water solubility. […] The inhibitory efficiency of the studied compounds was expressed by IC50 values, i.e., by molar concentration of the compounds causing 50% decrease in the oxygen evolution rate relative to the untreated control.

pIC50: −log10 of the molar value. Converted amounts (≈) assume the structure as drawn. “And” between values parts separate entries of the source, which are not always exact repeats. Equal entries are not always repeated.

Usually MIC stands for the smallest concentration in the dilution series that meets the test's criterion for growth inhibition. Lower therefore signals a more susceptible organism. With `COc1ccc(NC(=O)c2cc3ccccc3cc2O)cc1` [2c, 3-Hydroxy-N-(4-methoxyphenyl)naphthalene-2-carboxamide], the MIC in series [1] was over 873 µM; with M. kansasii DSM 44162, 873 µM (≈ 256 µg/mL); in series [2], over 873 µM; in series [3] it was over 873 µM; in series [4], over 873 µM; in series [5], over 873 µM. In addition, the log k in series [6] is listed as 0.5951.

On to `Cc1ccccc1NC(=O)c1cc2ccccc2cc1O` [3a, 3-Hydroxy-N-(2-methylphenyl)naphthalene-2-carboxamide], for which the MIC in series [1] is 462 µM (≈ 128 µg/mL); in the series with M. kansasii DSM 44162, 115 µM (≈ 31.9 µg/mL); in series [2] it was over 923 µM; in series [3], over 923 µM; in series [4], over 923 µM; in series [5] it was 462 µM (≈ 128 µg/mL). For the same molecule, the log k in series [6] came out at 0.6936.

As for `Cc1cccc(NC(=O)c2cc3ccccc3cc2O)c1` [3b, 3-Hydroxy-N-(3-methylphenyl)naphthalene-2-carboxamide], the MIC in series [1] is 923 µM (≈ 256 µg/mL); against M. kansasii DSM 44162, 57.7 µM (≈ 16 µg/mL); in series [2], over 923 µM; in series [3], over 923 µM; in series [4] it was over 923 µM; in series [5] it was 462 µM (≈ 128 µg/mL). Further, in series [6], the log k is recorded as 0.8831.

In the case of `Cc1ccc(NC(=O)c2cc3ccccc3cc2O)cc1` [3c, 3-Hydroxy-N-(4-methylphenyl)naphthalene-2-carboxamide], the MIC in series [1] was over 923 µM; against M. kansasii DSM 44162, 923 µM (≈ 256 µg/mL); in series [2], over 923 µM; in series [3] it was over 923 µM; in series [4] it was 462 µM (≈ 128 µg/mL); in series [5] it was 231 µM (≈ 64.1 µg/mL). The molecule also returned a log k in series [6] of 0.8753.

With `O=C(Nc1cccc(F)c1)c1cc2ccccc2cc1O` [4b, N-(3-Fluorophenyl)-3-hydroxynaphthalene-2-carboxamide], the MIC in series [1] is 114 µM (≈ 32.1 µg/mL); with M. kansasii DSM 44162, 114 µM (≈ 32.1 µg/mL); in series [2], over 910 µM; in series [3], over 910 µM; in series [4], 455 µM (≈ 128 µg/mL); in series [5], 228 µM (≈ 64.1 µg/mL). The molecule also came in with a log k in series [6] of 0.8296.

With `O=C(Nc1ccc(F)cc1)c1cc2ccccc2cc1O` [4c, N-(4-Fluorophenyl)-3-hydroxynaphthalene-2-carboxamide], the MIC in series [1] is 910 µM (≈ 256 µg/mL); against M. kansasii DSM 44162, 114 µM (≈ 32.1 µg/mL); in series [2], over 910 µM; in series [3] it was over 910 µM; in series [4], 455 µM (≈ 128 µg/mL); in series [5], 228 µM (≈ 64.1 µg/mL). The log k in series [6] came to 0.7317.

On to `O=C(Nc1ccccc1Cl)c1cc2ccccc2cc1O` [5a, N-(2-Chlorophenyl)-3-hydroxynaphthalene-2-carboxamide], for which the MIC in series [1] is 860 µM (≈ 256 µg/mL); with M. kansasii DSM 44162, 860 µM (≈ 256 µg/mL); in series [2], over 860 µM; in series [3], over 860 µM; in series [4] it was over 860 µM; in series [5], 215 µM (≈ 64 µg/mL). The same molecule showed a log k in series [6] of 0.9509.

Turning to `O=C(Nc1cccc(Cl)c1)c1cc2ccccc2cc1O` [5b, N-(3-Chlorophenyl)-3-hydroxynaphthalene-2-carboxamide], the MIC in series [1] is over 860 µM; against M. kansasii DSM 44162, 860 µM (≈ 256 µg/mL); in series [2], over 860 µM; in series [3], over 860 µM; in series [4], 430 µM (≈ 128 µg/mL); in series [5], 215 µM (≈ 64 µg/mL). The same molecule registered a log k in series [6] of 1.0796.

For the molecule `O=C(Nc1ccc(Cl)cc1)c1cc2ccccc2cc1O` [5c, N-(4-Chlorophenyl)-3-hydroxynaphthalene-2-carboxamide], the MIC in series [1] was over 860 µM; in the series on M. kansasii DSM 44162, 430 µM (≈ 128 µg/mL); in series [2], over 860 µM; in series [3], over 860 µM; in series [4] it was over 860 µM; in series [5] it was over 860 µM. For the same molecule, in series [6], the log k was 1.0687.

Consider `O=C(Nc1cccc(Br)c1)c1cc2ccccc2cc1O` [6b, N-(3-Bromophenyl)-3-hydroxynaphthalene-2-carboxamide], for which the MIC in series [1] is over 748 µM; against M. kansasii DSM 44162, 748 µM (≈ 256 µg/mL); in series [2], over 748 µM; in series [3], over 748 µM; in series [4] it was over 748 µM; in series [5], 187 µM (≈ 64 µg/mL). Moreover, the log k in series [6] stood at 1.1536.

As for `O=C(Nc1ccc(Br)cc1)c1cc2ccccc2cc1O` [6c, N-(4-Bromophenyl)-3-hydroxynaphthalene-2-carboxamide], the MIC in series [1] is over 748 µM; against M. kansasii DSM 44162, 374 µM (≈ 128 µg/mL); in series [2] it was over 748 µM; in series [3], over 748 µM; in series [4], over 748 µM; in series [5], 187 µM (≈ 64 µg/mL). The molecule also showed a log k in series [6] of 1.1459.

For `O=C(Nc1cccc(C(F)(F)F)c1)c1cc2ccccc2cc1O` [7b, 3-Hydroxy-N-(3-trifluoromethylphenyl)naphthalene-2-carboxamide], the MIC in series [1] is over 748 µM; in the series on M. kansasii DSM 44162, 748 µM (≈ 248 µg/mL); in series [2] it was over 748 µM; in series [3], over 748 µM; in series [4], 374 µM (≈ 124 µg/mL); in series [5], 187 µM (≈ 62 µg/mL). In series [6], this molecule showed a log k of 1.2053.

As to `O=C(Nc1ccc(C(F)(F)F)cc1)c1cc2ccccc2cc1O` [7c, 3-Hydroxy-N-(4-trifluoromethylphenyl)naphthalene-2-carboxamide], the MIC in series [1] is over 748 µM; with M. kansasii DSM 44162, 187 µM (≈ 62 µg/mL); in series [2], over 748 µM; in series [3], over 748 µM; in series [4], 374 µM (≈ 124 µg/mL); in series [5], 187 µM (≈ 62 µg/mL). In series [6], the log k is recorded as 1.2835.

Regarding `CC1(C)S[C@@H]2[C@H](NC(=O)[C@H](N)c3ccccc3)C(=O)N2[C@H]1C(=O)O` [APC, ampicillin, reference compound], the MIC was over 45.8 µM in series [2], 5.7 µM (≈ 1.99 µg/mL) in series [3], over 45.8 µM in series [4] and over 45.8 µM in series [5].

One may read the pIC50 as the negative decadic logarithm of the IC50, by convention in mol/L. Low readings indicate a large IC50, high ones a small IC50. On to `CN(C)C(=O)Nc1ccc(Cl)c(Cl)c1` [DCMU, 3-(3,4-dichlorophenyl)-1,1-dimethylurea, reference compound], for which, in series [7], the pIC50 was ~5.72 and 5.72.

In the case of `NNC(=O)c1ccncc1` [INH, isoniazid, reference compound], the lowest concentration to inhibit growth in series [1] (MIC) was 467 µM (≈ 64 µg/mL).

Regarding `O=C(Nc1ccccc1)c1cc2ccccc2cc1O` [compound 1, 3-Hydroxy-N-phenylnaphthalene-2-carboxamide], the MIC in series [1] was 122 µM (≈ 32.1 µg/mL); in the series with M. kansasii DSM 44162, 972 µM (≈ 256 µg/mL); in series [2] it was over 972 µM; in series [3], over 972 µM; in series [4] it was over 972 µM; in series [5], over 972 µM. In addition, the log k in series [6] turned out to be 0.6310.

Consider `O=C(Nc1ccccc1F)c1cc2ccccc2cc1O` [compound 4a, N-(2-Fluorophenyl)-3-hydroxynaphthalene-2-carboxamide], for which the MIC in series [1] was 28.4 µM (≈ 7.99 µg/mL); against M. kansasii DSM 44162 it was 56.9 µM (≈ 16 µg/mL); in series [2] it was over 910 µM; in series [3], over 910 µM; in series [4], 455 µM (≈ 128 µg/mL); in series [5] it was 228 µM (≈ 64.1 µg/mL). Further, the log k in series [6] is 0.7303.
